# Measurements taken from patent publication US12569557B2, “Targeting moDC to enhance vaccine efficacy on mucosal surface” (UNIVERSITY OF FLORIDA RESEARCH FOUNDATION, INCORPORATED, priority 2018, dated 2026).
# “Also recorded” adds a separate entry of the source.
# Columns and labels:
# [1] = system: H5N1 influenza, Acinetobacter baumannii, Staphylococcus aureus, Klebsiella pneumoniae and Streptococcus pneumoniae; details: cited from earlier work
# [2] = cited from earlier work
# lung TNF [3] = details: administered intranasally; cited from earlier work
# [4] = system: PspA-specific Th1, Th2, Th17 responses; assay: Ex vivo recall of PspA-specific Th responses in lung cells and splenocytes of immunized mice; details: immunized IRF4fl/flCD11ccre mice
# Procedure: (§1) Groups of mice (4 per group) were intranasally vaccinated with CDG (5 μg, Invivogen, cat #vac-cdg) adjuvanted PspA (2 μg, BEI Resources) or PspA alone^17. Mice were immunized twice at 14 days interval. For intranasal vaccination, animals were anesthetized using isoflurane in an E-Z Anesthesia system (Euthanex Corp, Palmer, Pa.). PspA, with or without CDG was administered in 20 μl saline. Sera were collected 14 days after the last immunization. The PspA-specific Abs were determined by ELISA. Secondary Abs used were anti-mouse IgG1-HRP (Southern Biotech, cat #1070-05), anti-mouse IgG2C-HRP (Southern Biotech, cat #1079-05), and anti-mouse IgA-HRP (Southern Biotech, cat #1040-05). To determine Ag-specific Th response, splenocytes from PspA or CDG+PspA immunized mice were stimulated with 5 μg/ml PspA for four days in culture. Th1, Th2, and Th17 cytokines were measured in the supernatant by ELISA.
# moDCs = assay: Antigen presentation by lung moDCs after intranasal CDG and Eα-OVA (YAE mAb); type: in vivo, C57BL/6 mice; details: CDG and Eα-OVA i.n.
# Excerpt: How does non-migratory moDCs (FIGS. 1D & 12B)^25,33 promote CDG-induced antibody responses? moDCs were efficient at antigen processing (FIG. 8D). We first asked if they presented antigen on cell surface. We intranasally administered C57BL/6 mice with CDG and Eα-OVA, and detected I-A^b/Eα^+ cells with the YAE mAb. Indeed, CDG increased YAE^+ moDCs in vivo (FIG. 9A).
# RelA, RelB, TBK1 = assay: pRelA, pRelB and p-TBK1 in lung DC subsets after intranasal CDG, flow cytometry; type: in vivo, mice
# lung DCs = assay: Lung DC / alveolar macrophage maturation (CD86, CCR7) after intranasal CDG, flow cytometry; type: in vivo, mice
# TNFR2 = type: in vivo, mice
# lung TNF [5] = assay: Detection of lung cytokine production after intranasal CDG (ELISA of lung homogenates); type: in vivo, mice
# Procedure: Mice were intranasally administered 5 μg CDG, then sacrificed after 5 hrs by C02 asphyxiation^17. Lungs were perfused with cold PBS. The harvested lungs were washed with PBS once, then stored in 0.7 ml Tissue protein extraction reagent (T-PER) (Thermo Scientific, cat #78510) containing protease inhibitors (Roche, cat #11836153001) at −80° C. Later, the lung was thawed on ice and homogenized with Minilys® (Precellys, 5,000 RPM for 30 sec) using Precellys lysing kit (Precellys, cat #KT03961). Lung homogenates were transferred to a 1.5 ml tube and spun at 14,000 g for 30 min at 4° C. The supernatant was collected and analyzed for TNF production by ELISA (eBioscience, cat #88-7324).
# anti-PspA IgG and IgA = assay: Intranasal CDG/PspA immunization: PspA-specific antibodies in serum and BALF by ELISA; type: in vivo, mice
# Procedure: as §1
# mTNF = assay: Cell surface mTNF expression on lung DCs detected with TNFR2-Fc recombinant protein; type: in vivo; details: WT mice, i.n. CDG 16 hours
# Procedure: We intranasally administered CDG to WT mice for 16 hours and detected cell surface mTNF expression using […] recombinant protein (FIG. 8A).
# The following Abs from Biolegend were used in the flow cytometry: CD80 (16-10A1), CD86 (GL1), CD11B (M1/70), CD11C (N418), FcεRIa (MAR-1), MHC II (M5/114.15.2), CD103(2E7), CD24 (m1/69), CD64 (x54-5/7.1), CCR7 (4B12), TNF (MP6-XT22), TNFR2 (TR75-89), PD-L1 (10F.9G2), BTLA (8F4), PD-L2 (TY25), CD301b (URA-1), CX3CR1 (SA011F11), CD172a (P84), CD44 (IM7). The following Abs were from Cell Signaling: p-TBK1 (ser172, d52c2), p-RelB (ser552, d41b9), p-RelA (ser536, cat #4887S). The following reagents were from Sino Biological: TNFR2 Ab (cat #50128-R112-A), TNFR2-Fc (mouse TNFR2 extracellular domain, Met 1-Gly 258, was fused with the Fc region of human IgG1 at the C-terminus, cat #50128-M02H), human IgG1 Fc (cat #10702-HNAH). Alexa Fluor®488 mouse anti-human IgG1 Fc was from Invitrogen (cat #A-10631). FITC-CDG (2′-Fluo-AHC-CDG) was from Biolog (cat #F009). Cell sorting was performed on the BD FACSAriaIII Flow Cytometer and Cell Sorter. After sorting, dendritic cells were CFSE labeled, according to the protocol from the manufacturer (Invitrogen).
smiles,measurement,setting,value
"Nc1nc2c(ncn2[C@@H]2O[C@@H]3COP(=O)(O)O[C@H]4[C@@H](O)[C@H](n5cnc6c(=O)[nH]c(N)nc65)O[C@@H]4COP(=O)(O)O[C@H]3[C@H]2O)c(=O)[nH]1 [CDG, cyclic di-GMP]",Adjuvant activity / response in MPYS−/− mice,[1]; MPYS−/− mice,do not respond
same,Cancer vaccine adjuvant activity,[1]; animal models,showed cancer vaccine adjuvant activity
same,"Activation of Th1 and Th2 immune response vs LPS, CpG ODN or aluminum salt based adjuvant",[1]; mice,more potent activator
same,Over-inflammatory responses in the lung,[2]; intranasal adjuvant,does not induce over-inflammatory responses
same,Acute toxicity as a mucosal adjuvant,[2]; mice,does not cause acute toxicity
same,"Lung production of TNF, IL-1β and IL-10",lung TNF [3],induced
same,"PspA-specific Th1, Th2, Th17 responses, ex vivo recall in lung cells and splenocytes",[4],"did not show PspA-specific Th1, Th2 or Th17 responses"
same,YAE+ moDCs (I-Ab/Eα presentation),moDCs,increased
same,TBK1 activation (p-TBK1) in cDC2,"RelA, RelB, TBK1; TNFR2−/− mice",activated
same,RelA activation in lung cDC1,"RelA, RelB, TBK1; i.n. CDG",activated RelA
same,RelA and RelB activation in lung moDCs,"RelA, RelB, TBK1; i.n. CDG",activated both RelA and RelB
same,RelB activation in lung cDC2,"RelA, RelB, TBK1; i.n. CDG",activated RelB; also recorded: further activate RelB
same,CD86 on lung moDCs,lung DCs; Batf3−/− mice,unaltered
same,CD86 on lung moDCs,lung DCs; IRF4fl/flCD11ccre mice,failed to upregulate CD86
same,Activation of lung DCs (CD86),lung DCs; MPYSfl/flLysMcre mice,unaltered
same,CD86 expression on moDCs,lung DCs; MPYSfl/flLysMcre mice,normal levels of CD86 expression
same,CD86 on lung cDC1,lung DCs; RelBfl/flCD11ccre mice,upregulated CD86
same,CD86 on lung cDC2,lung DCs; RelBfl/flCD11ccre mice,failed to upregulate CD86
same,CD86 on lung moDCs,lung DCs; RelBfl/flCD11ccre mice,induced
same,CD86 and CCR7 expression on cDC1,lung DCs; TNFR2−/− mice,induced
same,CD86 on lung moDCs,lung DCs; TNFR2−/− mice,did not upregulate CD86
same,CD86 or CCR7 expression in lung cDC2,lung DCs; TNFR2−/− mice,did not enhance
same,CD86 expression on alveolar macrophages,"lung DCs; WT mice, CDG treatment i.n.",did not increase expression of CD86
same,CCR7 expression on lung moDCs,"lung DCs; WT mice, i.n. CDG",did not increase CCR7
same,CD86 and CCR7 expression in lung cDC1 and cDC2,"lung DCs; WT mice, i.n. CDG",increased
same,CD86 expression on lung moDCs,"lung DCs; WT mice, i.n. CDG",increased expression of CD86
same,Migration of activated moDCs to lung draining lymph nodes,"lung DCs; WT mice, i.n. CDG",did not migrate to dLNs
same,TNFR2 expression on moDCs,TNFR2; WT mice,induced
same,TNFR2 expression on lung cDC1,"TNFR2; WT mice, i.n. CDG 16 hrs",dramatically increased
same,PD-L1 expression on transferred TNFR2+ and TNFR2− cDC2,"TNFR2; cDC2 subsets transferred into MPYS−/− mice, CDG i.n. 16 hrs",did not affect
same,CDG-induced lung MCP-1 production,lung TNF [5]; Batf3−/− mice (lack cDC1),largely absent
same,"CDG-induced lung production of TNF, IL-1β and IL-12p70",lung TNF [5]; IRF4fl/flCD11ccre mice (lack cDC2),dramatically reduced
same,CDG-induced lung TNF production,lung TNF [5]; TBK1fl/flVavCre mice,dramatically reduced
same,Lung TNF,lung TNF [5]; TNFR2−/− mice,induced
same,Anti-PspA Abs in BALF and serum,"anti-PspA IgG and IgA; IRF4fl/flCD11ccre mice, PspA with CDG i.n.",did not induce
same,Humoral and cellular immune responses,anti-PspA IgG and IgA; TNFR1−/− mice,reduced humoral and cellular immune responses
same,Adjuvant activity (humoral and cellular responses),anti-PspA IgG and IgA; TNFR2−/− mice,completely lost its adjuvant activity
same,mTNF expression on TNFR2+ cDC2,mTNF,expressed little mTNF
same,mTNF expression on TNFR2− cDC2,mTNF,main mTNF^+ cDC2 cells
